“Also recorded” adds a separate entry of the source.
Assays:
[1] = test system: DNA hairpin containing a tetrahydrofuran spacer (pseudo AP site); experiment: Fluorescence of probe with pseudo AP site DNA hairpin (non-covalent); assay type: binding
Protocol: (§1) FIG. 9 provides interaction between Compound (1) (CCVJ1) and DNA. […] (Ex. 485, Em. 538).
(§2) To further explore the hypothesis that the oxime rate acceleration in these AP-site DNAs was related to base stacking interactions, the fluorescence was measured of CCVJ1 in the presence and absence of a non-lesion containing DNA hairpin.

[2] = Absorption spectra of free and AP site bound probe; assay type: physicochemical; settings: in buffer
Excerpt: FIG. 24 provides normalized absorption spectra of free Compound (1) (CCJV1 probe) and AP site bound probe in buffer. Oxime formation with the AP site red shifts absorption from a λmax of 454 nm in the unbound probe to a λmax of 468 nm in the bound probe. The extinction coefficient calculated for the unbound probe is 30,400 M^−1·cm^−1 and 28,700 M^−1·cm^−1 for the bound probe.
Instrumentation: NMR spectra were acquired on a Varian Inova 400 (400 MHz) or 500 (500 MHz) spectrometer and chemical shift reported in parts per million (6) relative to internal standard TMS (0 ppm). Small molecule mass spectra were measured on a Waters 2795 system via electrospray ionization (ESI) with a ZQ single quadrupole MS. Oligonucleotide mass spectra were acquired by MALDI-TOF using a Bruker Microflex MALDI-TOF in negative ion mode. Ultraviolet spectra were measured on a Cary 300. Fluorescence emission and excitation spectra were recorded on a Jobin Yvon-Spex Fluorolog 3 spectrometer with an external temperature controller. Fluorescence time courses were collected on a Fluoroskan Ascent Microplate Fluorometer (Thermo Fisher Scientific). Oligonucleotide concentrations were determined by UV-absorption on a NanoDrop One Microvolume UV-Vis Spectrophotometer (ThermoFisher Scientific). DNA synthesis was carried out on an Applied Biosystems 394 DNA/RNA synthesizer.

NTH1 = molecular target: T1, NTH1 (Homo sapiens, UniProt P78549); experiment: NTH1 coupled assay with 5-hydroxycytosine DNA hairpin; assay type: biochemical; settings: NTH1 500 nM, 5hC DNA substrate 60 μM, CCVJ1 20 μM
T1 construct: purchased Novus biologics
T1 sequence (P78549 23-304): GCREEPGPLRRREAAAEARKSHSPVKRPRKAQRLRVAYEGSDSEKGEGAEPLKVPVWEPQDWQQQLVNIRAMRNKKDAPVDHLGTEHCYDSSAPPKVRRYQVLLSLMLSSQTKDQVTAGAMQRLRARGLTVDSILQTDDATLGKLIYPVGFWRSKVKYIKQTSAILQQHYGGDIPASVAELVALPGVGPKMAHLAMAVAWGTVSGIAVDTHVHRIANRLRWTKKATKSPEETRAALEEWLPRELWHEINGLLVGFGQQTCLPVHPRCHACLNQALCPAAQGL
Protocol: FIG. 15, panels A-G provides quantitative coupled assays using Compound (1) (CCJV1). Shown are data from reaction of lesion containing substrates with UNG and SMUG1 (5 nM) (panel A), MPG (100 nM) (panel B), NTH1 (500 nM) (panel C), OGG1 (100 nM) in real-time (panel D) with lesion containing DNA (2 μM) and CCVJ1 (20 μM) (panels A, B and D) or lesion containing DNA (60 μM) and CCVJ1 (20 μM) […]. […] Delay time tss of 25 minutes indicated with dotted line.
FIG. 16 provides time course of NTH1 (500 nM) with 5-hydroxycytosine containing DNA (60 μM) and Compound (1) (CCVJ1) (20 μM). […] Following a 10-minute incubation period, additional substrate was then added (20 μM) which yielded an increase in fluorescence.
Based on the results of our neighboring base effect study, several glycosylase oligonucleotide substrates were purchased or prepared in which the identity of the base lesion X was varied to correspond to the known activities of different target glycosylases (FIG. 15, panel E). For these studies human enzymes SMUG1/UNG, OGG1, MPG and NTH1, were chosen which represent a diverse array of human glycosylases. […] Assays were carried out in a 60 μL volume in a 384 well format on a microplate reader using a fluorescein filter set. For each enzyme, it was possible to observe a robust fluorescence signal (FIG. 15, panels A-D). […]

[3] = Off-target light-up with small-molecule carbonyl species; settings: 5 μM CCVJ1, 500 μM carbonyl species, 37° C.
Protocol: FIG. 13 provides fluorescence response of 5 μM Compound (1) (CCVJ1) with 500 μM of various biologically relevant carbonyl species after 1 h incubation in buffer at 37° C. […] (Ex. 485, Em. 538)
Since the probe design involves conformational restriction to induce a light-up signal, it was hypothesized that off-target oxime formation with small molecules might induce a relatively small signal relative to DNA, thus providing a measure of selectivity in signaling. […] Another potential aspect is that ketones or aldehydes in the environment might compete with the DNA AP site to react with the aminooxy group, thereby consuming the free probe and reducing the maximum signal. Initial testing of the reactivity of CCVJ1 with AP site-containing DNA in the presence of increasing amounts of competing 2-deoxyribose, the closest small-molecule analogue to the DNA AP site. […] This was repeated this experiment with pyruvic acid, a highly reactive ketone and a common cellular metabolite.

[4] = test system: AP-containing single-stranded DNA oligonucleotide (oligonucleotide 18); experiment: Reaction of probe with AP-containing single-stranded DNA; assay type: biochemical
Protocol: FIG. 8 provides representative plot for the reaction of Compound (1) (CCVJ1) with single stranded DNA oligonucleotide 18.
Additional experiments were performed to study the origins of this unusually rapid reaction. […] To test the effect that proximity between the alkoxyamine and planar portion of the probe had on oxime kinetics in our probes, probes were synthesized having variable-length linkers (CCVJ2 and CCVJ3) from aldehyde reactive linkers L2 and L3 respectively (FIG. 2A). […] To test the importance of a double-stranded DNA structure to the rate and fluorescence response, an AP-containing single-stranded DNA oligonucleotide was reacted with CCVJ1. At pH 7, CCVJ1 reacted with a second-order rate constant of 33 M^−1s^−1 with the single-stranded substrate, roughly 5-fold slower than a double-stranded hairpin with identical sequence context (FIG. 8).

[5] = test system: non-lesion containing DNA hairpin (undamaged double stranded DNA); experiment: Fluorescence of probe with non-lesion DNA hairpin (non-covalent); assay type: binding; settings: 5 μM probe, 20 μM DNA; over free probe
Protocol: as §1, §2

absorption λmax, AP site bound probe [2]: 468 nm
absorption λmax, unbound probe [2]: 454 nm
extinction coefficient, bound probe [2]: 28,700 M^−1·cm^−1
extinction coefficient, unbound probe [2]: 30,400 M^−1·cm^−1
overall fold change of fluorescence with NTH1 (NTH1): 20 fold
SMILES: N#C/C(=C\c1cc2c3c(c1)CCCN3CCC2)C(=O)NCCON [CCVJ1]
fluorescence with pseudo AP hairpin, higher than with undamaged DNA [1]: ~4 fold
increase in fluorescence with pseudo AP hairpin over the free probe ([1]; 5 μM probe, 20 μM DNA): ~10 fold
light-up response with small-molecule ketones and aldehydes [3]: absence of any fluorescence response; also recorded: none of them generated a significant light-up response
increase in fluorescence on reaction with single-stranded DNA [4]: 4 fold
rate with single-stranded substrate, slower than double-stranded hairpin of identical sequence context ([4]; pH 7): roughly 5 fold
second-order rate constant with single-stranded substrate ([4]; pH 7): 33 M⁻¹ s⁻¹
increase in fluorescence intensity upon addition of non-lesion DNA hairpin [5]: ~2.5 fold

Reference: US20210147932A1, “FLUORESCENT PROBES FOR QUANTIFICATION OF DNA DAMAGE AND REPAIR” (The Board of Trustees of the Leland Stanford Junior …, priority 2019, published 2021)
